Values of other authors as cited in US6534088B2, “Fibrate-statin combinations with reduced fed-fasted effects” (SkyePharma Canada Inc., priority 2001, dated 2003).
One block for each molecule: values may come before it.

Experiments:
[1] = not given; remark: listed apart in the source

Compound: CC[C@H](C)C(=O)O[C@H]1C[C@H](O)C=C2C=C[C@H](C)[C@H](CC[C@@H](O)C[C@@H](O)CC(=O)O)[C@H]21 [Pravastatin]
solubility in methanol and water: > 300 mg/mL
partition coefficient (octanol/water) (pH of 7.0): 0.59

Compound: CC(C)(Oc1ccc(C(=O)c2ccc(Cl)cc2)cc1)C(=O)O [fenofibric acid]
elimination half-life ([1]; metabolite in blood or plasma): approximately twenty

Now from value to molecule:

solubility in water: soluble in water
effect of food on absorption ([1]; oral administration): not sensitive to a food effect
Compound: COCc1c(C(C)C)nc(C(C)C)c(/C=C/[C@@H](O)C[C@@H](O)CC(=O)O)c1-c1ccc(F)cc1 [Cerivastatin]

solubility in water: insoluble in water
Compound: CC[C@H](C)C(=O)O[C@H]1C[C@@H](C)C=C2C=C[C@H](C)[C@H](CC[C@@H]3C[C@@H](O)CC(=O)O3)[C@H]21 [Lovastatin]

solubility in water: soluble in water
time to peak concentrations ([1]; oral administration): less than 1 hour
Compound: CC(C)n1c(/C=C/C(O)CC(O)CC(=O)O)c(-c2ccc(F)cc2)c2ccccc21 (centres unmarked) [Fluvastatin]
